In PubChem BioAssay (NCI):
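Exposure lasted 48 hours, with cells grown in 96-well plates and compounds tested at five concentrations. The concentration for full growth arrest is given as TGI.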

Legend:
Experiment in all cases: NCI tumour cell line growth inhibition, 48 h
786-0 renal = system: 786-0 renal
A498 renal = system: A498 renal
A549 NSCLC = system: A549 NSCLC
ACHN renal = system: ACHN renal
BT-549 breast = system: BT-549 breast
CAKI-1 renal = system: CAKI-1 renal
CCRF-CEM leukemia = system: CCRF-CEM leukemia
COLO 205 colon = system: COLO 205 colon
DLD-1 colon = system: DLD-1 colon
DMS 114 small cell lung = system: DMS 114 small cell lung
DMS 273 small cell lung = system: DMS 273 small cell lung
DU-145 prostate = system: DU-145 prostate
EKVX NSCLC = system: EKVX NSCLC
HCC-2998 colon = system: HCC-2998 colon
HCT-116 colon = system: HCT-116 colon
HCT-15 colon = system: HCT-15 colon
HL-60(TB) leukemia = system: HL-60(TB) leukemia
HOP-18 NSCLC = system: HOP-18 NSCLC
HOP-62 NSCLC = system: HOP-62 NSCLC
HOP-92 NSCLC = system: HOP-92 NSCLC
HS 578T breast = system: HS 578T breast
HT29 colon = system: HT29 colon
IGROV1 ovarian = system: IGROV1 ovarian
K-562 leukemia = system: K-562 leukemia
KM12 colon = system: KM12 colon
KM20L2 colon = system: KM20L2 colon
LOX IMVI melanoma = system: LOX IMVI melanoma
M14 melanoma = system: M14 melanoma
M19-MEL melanoma = system: M19-MEL melanoma
MALME-3M melanoma = system: MALME-3M melanoma
MCF7 breast = system: MCF7 breast
MDA-MB-231 breast = system: MDA-MB-231 breast
MDA-MB-435 = system: MDA-MB-435
MOLT-4 leukemia = system: MOLT-4 leukemia
NCI-H226 lung = system: NCI-H226 lung
NCI-H23 lung = system: NCI-H23 lung
NCI-H460 lung = system: NCI-H460 lung
NCI-H522 lung = system: NCI-H522 lung
NCI/ADR-RES ovarian = system: NCI/ADR-RES ovarian
OVCAR-3 ovarian = system: OVCAR-3 ovarian
OVCAR-4 ovarian = system: OVCAR-4 ovarian
OVCAR-5 ovarian = system: OVCAR-5 ovarian
OVCAR-8 ovarian = system: OVCAR-8 ovarian
P388 leukemia = system: P388 leukemia
P388/ADR leukemia = system: P388/ADR leukemia
PC-3 prostate = system: PC-3 prostate
RPMI-8226 leukemia = system: RPMI-8226 leukemia
RXF 393 renal = system: RXF 393 renal
SF-268 CNS = system: SF-268 CNS
SF-295 CNS = system: SF-295 CNS
SF-539 CNS = system: SF-539 CNS
SK-MEL-2 melanoma = system: SK-MEL-2 melanoma
SK-MEL-28 melanoma = system: SK-MEL-28 melanoma
SK-MEL-5 melanoma = system: SK-MEL-5 melanoma
SK-OV-3 ovarian = system: SK-OV-3 ovarian
SN12C renal = system: SN12C renal
SN12K1 renal = system: SN12K1 renal
SNB-19 CNS = system: SNB-19 CNS
SNB-75 CNS = system: SNB-75 CNS
SNB-78 CNS = system: SNB-78 CNS
SR leukemia = system: SR leukemia
SW-620 colon = system: SW-620 colon
T-47D breast = system: T-47D breast
TK-10 renal = system: TK-10 renal
U251 CNS = system: U251 CNS
UACC-257 melanoma = system: UACC-257 melanoma
UACC-62 melanoma = system: UACC-62 melanoma
UO-31 renal = system: UO-31 renal
XF 498 CNS = system: XF 498 CNS

**Q.** Which results are given for `CS(=O)(=O)OCCCNCCCOS(C)(=O)=O`?
**A.** TGI (786-0 renal): 6.31 mM; TGI (A498 renal): 3.63 mM; TGI (A549 NSCLC): 4.55 mM; TGI (ACHN renal): 3.58 mM; TGI (BT-549 breast): 4.5 mM; TGI (CAKI-1 renal): 4.28 mM; TGI (CCRF-CEM leukemia): 3.13 mM; TGI (COLO 205 colon): 4.54 mM; TGI (DLD-1 colon): 9.1 mM; TGI (DMS 114 small cell lung): 3.63 mM; TGI (DMS 273 small cell lung): 1.15 mM; TGI (DU-145 prostate): 6.44 mM; TGI (EKVX NSCLC): 6.03 mM; TGI (HCC-2998 colon): 3.67 mM; TGI (HCT-116 colon): 5.67 mM; TGI (HCT-15 colon): 4.68 mM; TGI (HL-60(TB) leukemia): 2.54 mM; TGI (HOP-18 NSCLC): 2.56 mM; TGI (HOP-62 NSCLC): 6.03 mM; TGI (HOP-92 NSCLC): 4.4 mM; TGI (HS 578T breast): 8.17 mM; TGI (HT29 colon): 4.48 mM; TGI (IGROV1 ovarian): 7.3 mM; TGI (K-562 leukemia): 9.08 mM; TGI (KM12 colon): 5.51 mM; TGI (KM20L2 colon): 5.86 mM; TGI (LOX IMVI melanoma): 3.92 mM; TGI (M14 melanoma): 5.05 mM; TGI (M19-MEL melanoma): 5.56 mM; TGI (MALME-3M melanoma): 4.89 mM; TGI (MCF7 breast): 5.32 mM; TGI (MDA-MB-231 breast): 6.12 mM; TGI (MDA-MB-435): 8.69 mM; TGI (MOLT-4 leukemia): 2.34 mM; TGI (NCI-H226 lung): 5.86 mM; TGI (NCI-H23 lung): 5.63 mM; TGI (NCI-H460 lung): 2.45 mM; TGI (NCI-H522 lung): 5.51 mM; TGI (NCI/ADR-RES ovarian): 6.04 mM; TGI (OVCAR-3 ovarian): 7.6 mM; TGI (OVCAR-4 ovarian): 5.36 mM; TGI (OVCAR-5 ovarian): 6.29 mM; TGI (OVCAR-8 ovarian): 6.63 mM; TGI (P388 leukemia): 6.52 mM; TGI (P388/ADR leukemia): 8.33 mM; TGI (PC-3 prostate): 5.62 mM; TGI (RPMI-8226 leukemia): 6.78 mM; TGI (RXF 393 renal): 5.48 mM; TGI (SF-268 CNS): 7.62 mM; TGI (SF-295 CNS): 4.76 mM; TGI (SF-539 CNS): 5.17 mM; TGI (SK-MEL-2 melanoma): 3.69 mM; TGI (SK-MEL-28 melanoma): 7.56 mM; TGI (SK-MEL-5 melanoma): 3.22 mM; TGI (SK-OV-3 ovarian): 7.47 mM; TGI (SN12C renal): 3.83 mM; TGI (SN12K1 renal): 2.32 mM; TGI (SNB-19 CNS): 6.45 mM; TGI (SNB-75 CNS): 6.94 mM; TGI (SNB-78 CNS): 8.53 mM; TGI (SR leukemia): 2.97 mM; TGI (SW-620 colon): 6.72 mM; TGI (T-47D breast): 6.74 mM; TGI (TK-10 renal): 6.93 mM; TGI (U251 CNS): 5.46 mM; TGI (UACC-257 melanoma): 5.31 mM; TGI (UACC-62 melanoma): 4.26 mM; TGI (UO-31 renal): 6.43 mM; TGI (XF 498 CNS): 2.6 mM
